These results are taken from the supplement of paper PMC13380429.

Common to all, as to details: 72 h
Assay [1] concerns Vero E6. Nature of the assay: drug sensitivity score (DSS) for viability; higher = more toxic; extreme values may be limits of the assay.
Assay [2] relates to Calu-3. Described as above.
The test system of assay [3] is U2OS. The description is as above.
Assay [4] has as its system HepG2. The description is as above.
The subject of assay [5] is Caco-2. The assay is described as above.
The subject of assay [6] is HepG2. Nature of the assay: relative viability EC50 (midpoint between 100% and the lowest measured viability); higher = less toxic.
Assay [7] concerns Calu-3. Described as above.
Assay [8] has as its system Caco-2. The assay is described as above.
In assay [9] the test system is U2OS. The assay is described as above.
Assay [10] has as its system HepG2. Nature of the assay: cell viability relative to DMSO; higher = less toxic.
Assay [11] relates to Calu-3. Described as above.
For assay [12], the system named is Caco-2. The description is as above.
Assay [13] concerns U2OS. The description is as above.
The test system of assay [14] is Vero E6. The assay is described as above.

Structures are written as SMILES.

In the case of `NS(=O)(=O)c1cc2c(cc1Cl)NCNS2(=O)=O` [hydrochlorothiazide], the drug sensitivity score in assay [1], in assay [2] and in assay [3] was 0 throughout.
As usually defined, the cell viability is a read-out of living cells in per cent, often relative to untreated cells. With `OCCOCCN1CCN(C(c2ccccc2)c2ccc(Cl)cc2)CC1` (configuration not stated) [hydroxyzine], the drug sensitivity score in assay [4], in assay [2], in assay [5] and in assay [3] was 0 throughout. In addition, the “relative viability EC50” value in assay [6], in [7], in [8] and in [9] was over 10 µM in each case. Besides, the cell viability in [10] (1 nM) turned out to be 101%; in assay [10] (10 nM), 96.4%; in [10] (100 nM) it was 104%; in [10] (1000 nM), 108%; in assay [10] (10000 nM) it was 105%; in assay [11] (1 nM), 101%. Moreover, the cell viability in assay [11] (10 nM) was found to be 115%; in [11] (100 nM) it was 93.3%; in [11] (1000 nM), 106%; in assay [11] (10000 nM), 96.7%; in assay [12] (1 nM), 94.2%; in [12] (10 nM), 101%. For the same compound, the cell viability in assay [12] (100 nM) was 106%; in [12] (1000 nM) it was 101%; in [12] (10000 nM), 94%; in assay [13] (1 nM), 97.9%; in assay [13] (10 nM) it was 99.8%; in [13] (100 nM), 96.8%. The cell viability in assay [13] (1000 nM) stood at 100%; in [13] (10000 nM) it was 93.8%.
Consider `Cc1cc(C)c(S(=O)(=O)Nc2cccc(C(F)(F)F)c2)c(C)c1` [m-3M3FBS], for which the drug sensitivity score in [4] amounted to 0.4; in [2], 0; in assay [5], 0; in assay [3] it was 0. For the same compound, the “relative viability EC50” value in [6], in assay [7], in assay [8] and in assay [9] was over 10 µM in each case. For the same compound, the cell viability in [10] (1 nM) came out at 101%; in [10] (10 nM) it was 98.9%; in assay [10] (100 nM), 93%; in [10] (1000 nM), 88.8%; in assay [10] (10000 nM), 90.6%; in assay [11] (1 nM), 94.5%. Moreover, the cell viability came to 102% in assay [11] (10 nM); 95.8% in assay [11] (100 nM); 98.9% in [11] (1000 nM); 99.4% in [11] (10000 nM); 111% in [12] (1 nM); 98.8% in [12] (10 nM). The cell viability worked out at 108% in assay [12] (100 nM); 98.2% in [12] (1000 nM); 106% in [12] (10000 nM); 101% in [13] (1 nM); 97% in assay [13] (10 nM); 100% in assay [13] (100 nM). The cell viability in assay [13] (1000 nM) turned out to be 103%; in [13] (10000 nM) it was 100%.
With `NCc1ccc(S(N)(=O)=O)cc1` [mafenide], the drug sensitivity score in [4], in assay [2] and in assay [5] was 0 in each case. Also, the “relative viability EC50” value in assay [6], in assay [7] and in assay [8] was over 10 µM in each case. Moreover, the cell viability in assay [10] (1 nM) was determined as 94.1%; in assay [10] (10 nM) it was 102%; in assay [10] (100 nM), 99.9%; in assay [10] (1000 nM) it was 101%; in assay [10] (10000 nM), 95.7%; in [11] (1 nM), 100%. Moreover, the cell viability in assay [11] (10 nM) amounted to 103%; in assay [11] (100 nM), 98.1%; in assay [11] (1000 nM) it was 94.5%; in assay [11] (10000 nM) it was 96.1%; in assay [12] (1 nM) it was 106%; in [12] (10 nM) it was 98.5%. Further, the results for the cell viability in [12] (100 nM), in assay [12] (1000 nM) and in assay [12] (10000 nM) were 97.7%, 103% and 98.1%, respectively.
Regarding `CS(=O)(=O)Nc1ccc([N+](=O)[O-])cc1Oc1ccccc1` [nimesulide], the drug sensitivity score in assay [1], in assay [4], in [2] and in assay [3] was 0 throughout.
For the compound `NC(=O)c1cccc2cn(-c3ccc([C@@H]4CCCNC4)cc3)nc12` [niraparib], the drug sensitivity score in assay [1] was 1.7; in assay [4], 2.5; in assay [2] it was 0; in assay [5], 0; in assay [3], 0. The “relative viability EC50” value in assay [7], in assay [8] and in [9] was over 10 µM throughout. The cell viability in [14] (1 nM) was found to be 102%; in assay [14] (10 nM), 102%; in [14] (100 nM), 102%; in assay [14] (1000 nM) it was 95.8%; in assay [14] (10000 nM), 73%; in assay [10] (1 nM), 83.9%. In addition, the cell viability in assay [10] (10 nM) worked out at 109%; in [10] (100 nM), 99.4%; in assay [10] (1000 nM), 95.4%; in assay [10] (10000 nM) it was 62.9%; in [11] (1 nM), 97%; in assay [11] (10 nM), 104%. The cell viability came to 110% in [11] (100 nM); 106% in [11] (1000 nM); 97.6% in assay [11] (10000 nM); 92.7% in assay [12] (1 nM); 106% in assay [12] (10 nM); 89.9% in assay [12] (100 nM). Also, the cell viability in [12] (1000 nM) amounted to 96.4%; in assay [12] (10000 nM) it was 88.1%; in [13] (1 nM), 101%; in [13] (10 nM) it was 95.4%; in [13] (100 nM), 101%; in assay [13] (1000 nM) it was 97.3%. Besides, the cell viability in assay [13] (10000 nM) came to 106%.
